From PubChem BioAssay (NCI)
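Dose response: 5 concentrations. Exposure: 48 h. Format: 96-well plates. Endpoint: linear interpolation; highest concentration if not reached. The concentration for 50% growth inhibition is given as GI50. TGI: concentration producing complete growth inhibition.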

How the values were obtained:
Assay in all cases: DTP human tumour cell line panel, 48 h
HOP-62 NSCLC = system: HOP-62 NSCLC
NCI-H226 lung = system: NCI-H226 lung
MOLT-4 leukemia = system: MOLT-4 leukemia
U251 CNS = system: U251 CNS
A498 renal = system: A498 renal
M14 melanoma = system: M14 melanoma
SNB-75 CNS = system: SNB-75 CNS
NCI-H23 lung = system: NCI-H23 lung
SK-MEL-2 melanoma = system: SK-MEL-2 melanoma
HCC-2998 colon = system: HCC-2998 colon
OVCAR-4 ovarian = system: OVCAR-4 ovarian
SF-268 CNS = system: SF-268 CNS
HL-60(TB) leukemia = system: HL-60(TB) leukemia
SN12C renal = system: SN12C renal
NCI/ADR-RES ovarian = system: NCI/ADR-RES ovarian
CCRF-CEM leukemia = system: CCRF-CEM leukemia
OVCAR-8 ovarian = system: OVCAR-8 ovarian
MALME-3M melanoma = system: MALME-3M melanoma
DU-145 prostate = system: DU-145 prostate
MCF7 breast = system: MCF7 breast
A549 NSCLC = system: A549 NSCLC
BT-549 breast = system: BT-549 breast
SNB-19 CNS = system: SNB-19 CNS
ACHN renal = system: ACHN renal
HT29 colon = system: HT29 colon
786-0 renal = system: 786-0 renal
HCT-15 colon = system: HCT-15 colon
COLO 205 colon = system: COLO 205 colon
LOX IMVI melanoma = system: LOX IMVI melanoma
NCI-H522 lung = system: NCI-H522 lung
TK-10 renal = system: TK-10 renal
HCT-116 colon = system: HCT-116 colon
SW-620 colon = system: SW-620 colon
MDA-MB-435 = system: MDA-MB-435
T-47D breast = system: T-47D breast
SF-539 CNS = system: SF-539 CNS
IGROV1 ovarian = system: IGROV1 ovarian
KM12 colon = system: KM12 colon
K-562 leukemia = system: K-562 leukemia
PC-3 prostate = system: PC-3 prostate
SF-295 CNS = system: SF-295 CNS
CAKI-1 renal = system: CAKI-1 renal
OVCAR-5 ovarian = system: OVCAR-5 ovarian
RXF 393 renal = system: RXF 393 renal
NCI-H460 lung = system: NCI-H460 lung
UO-31 renal = system: UO-31 renal
OVCAR-3 ovarian = system: OVCAR-3 ovarian
UACC-62 melanoma = system: UACC-62 melanoma
HOP-92 NSCLC = system: HOP-92 NSCLC
EKVX NSCLC = system: EKVX NSCLC
RPMI-8226 leukemia = system: RPMI-8226 leukemia
SK-MEL-28 melanoma = system: SK-MEL-28 melanoma
HS 578T breast = system: HS 578T breast
SK-MEL-5 melanoma = system: SK-MEL-5 melanoma
SK-OV-3 ovarian = system: SK-OV-3 ovarian
MDA-MB-231 breast = system: MDA-MB-231 breast
UACC-257 melanoma = system: UACC-257 melanoma

## CCNc1nc(N2CC(=O)Nc3cc(OC)ccc32)c2ccccc2n1
HOP-62 NSCLC
  GI50: 0.00227 µM
  TGI: 14.2 µM
NCI-H226 lung
  TGI: > 100 µM
MOLT-4 leukemia
  GI50: 0.000472 µM
  TGI: > 100 µM
U251 CNS
  GI50: 0.000437 µM
  TGI: > 100 µM
A498 renal
  GI50: 0.00151 µM
M14 melanoma
  GI50: 0.000363 µM
  TGI: > 100 µM
SNB-75 CNS
  GI50: 0.000433 µM
  TGI: > 100 µM
NCI-H23 lung
  GI50: 0.000554 µM
  TGI: > 100 µM
SK-MEL-2 melanoma
  TGI: 42.7 µM
HCC-2998 colon
  GI50: 0.000614 µM
OVCAR-4 ovarian
  TGI: > 100 µM
SF-268 CNS
  GI50: 0.00139 µM
  TGI: > 100 µM
HL-60(TB) leukemia
  GI50: 0.000235 µM
  TGI: 0.000581 µM
SN12C renal
  GI50: 0.00137 µM
  TGI: > 100 µM
NCI/ADR-RES ovarian
  GI50: 0.000399 µM
  TGI: 0.015 µM
CCRF-CEM leukemia
  GI50: 0.000404 µM
  TGI: > 100 µM
OVCAR-8 ovarian
  GI50: 0.000945 µM
  TGI: > 100 µM
MALME-3M melanoma
  GI50: 7.57 µM
  TGI: > 100 µM
DU-145 prostate
  GI50: 0.000435 µM
  TGI: 12.1 µM
MCF7 breast
  GI50: 0.000369 µM
  TGI: > 100 µM
A549 NSCLC
  GI50: 0.000737 µM
  TGI: > 100 µM
BT-549 breast
  GI50: 0.00237 µM
  TGI: 3.91 µM
SNB-19 CNS
  GI50: 0.00067 µM
  TGI: > 100 µM
ACHN renal
  GI50: 0.00139 µM
  TGI: > 100 µM
HT29 colon
  GI50: 0.000334 µM
  TGI: 0.01 µM
786-0 renal
  GI50: 0.00994 µM
  TGI: > 100 µM
HCT-15 colon
  GI50: 0.000609 µM
  TGI: > 100 µM
COLO 205 colon
  GI50: 0.00035 µM
  TGI: 0.00207 µM
LOX IMVI melanoma
  GI50: 0.000693 µM
  TGI: > 100 µM
NCI-H522 lung
  GI50: 0.00051 µM
  TGI: 0.00783 µM
TK-10 renal
  GI50: 0.0822 µM
  TGI: > 100 µM
HCT-116 colon
  GI50: 0.000361 µM
  TGI: > 100 µM
SW-620 colon
  GI50: 0.000378 µM
  TGI: > 100 µM
MDA-MB-435
  GI50: 0.000193 µM
  TGI: 0.000442 µM
T-47D breast
  GI50: 0.253 µM
  TGI: 52.9 µM
SF-539 CNS
  GI50: 0.0011 µM
  TGI: 0.00655 µM
IGROV1 ovarian
  GI50: 0.00184 µM
  TGI: 14.1 µM
KM12 colon
  GI50: 0.000404 µM
  TGI: > 100 µM
K-562 leukemia
  GI50: 0.000351 µM
  TGI: > 100 µM
PC-3 prostate
  GI50: 0.00058 µM
  TGI: > 100 µM
SF-295 CNS
  GI50: 0.00129 µM
  TGI: 0.00614 µM
CAKI-1 renal
  GI50: 0.0022 µM
  TGI: > 100 µM
OVCAR-5 ovarian
  GI50: 0.0107 µM
  TGI: > 100 µM
RXF 393 renal
  GI50: 0.001 µM
NCI-H460 lung
  GI50: 0.000365 µM
  TGI: > 100 µM
UO-31 renal
  TGI: > 100 µM
OVCAR-3 ovarian
  GI50: 0.000352 µM
UACC-62 melanoma
  GI50: 0.00054 µM
  TGI: > 100 µM
HOP-92 NSCLC
  GI50: 1.26 µM
  TGI: 9.69 µM
EKVX NSCLC
  TGI: > 100 µM
RPMI-8226 leukemia
  GI50: 0.000471 µM
  TGI: 24.3 µM
SK-MEL-28 melanoma
  GI50: 1.7 µM
  TGI: > 100 µM
HS 578T breast
  GI50: 0.00164 µM
  TGI: 47.8 µM
SK-MEL-5 melanoma
  GI50: 0.000456 µM
  TGI: 0.00337 µM
SK-OV-3 ovarian
  GI50: 0.000483 µM
  TGI: 0.0134 µM
MDA-MB-231 breast
  GI50: 0.000553 µM
  TGI: > 100 µM

## CC[C@H](C)C(=O)O[C@H]1CCC=C2C=C[C@H](C)C(CCC3C[C@@H](O)CC(=O)O3)[C@H]21 (stereo not given in full)
HOP-62 NSCLC
  GI50: 18.1 µM
  TGI: > 100 µM
NCI-H226 lung
  GI50: 6.2 µM
  TGI: 46 µM
MOLT-4 leukemia
  TGI: > 100 µM
U251 CNS
  GI50: 1.82 µM
  TGI: > 100 µM
A498 renal
  GI50: 0.0183 µM
  TGI: 2.42 µM
M14 melanoma
  TGI: > 100 µM
SNB-75 CNS
  GI50: 1.33 µM
  TGI: 7.85 µM
UACC-257 melanoma
  GI50: > 100 µM
  TGI: > 100 µM
NCI-H23 lung
  GI50: 3.5 µM
  TGI: > 100 µM
SK-MEL-2 melanoma
  GI50: 6.98 µM
  TGI: > 100 µM
HCC-2998 colon
  GI50: 33 µM
  TGI: > 100 µM
OVCAR-4 ovarian
  GI50: 22.7 µM
  TGI: > 100 µM
SF-268 CNS
  GI50: 1.94 µM
  TGI: > 100 µM
HL-60(TB) leukemia
  GI50: 11.7 µM
  TGI: 52.9 µM
SN12C renal
  GI50: 3.5 µM
  TGI: > 100 µM
NCI/ADR-RES ovarian
  GI50: 2.3 µM
  TGI: > 100 µM
CCRF-CEM leukemia
  GI50: > 100 µM
  TGI: > 100 µM
OVCAR-8 ovarian
  GI50: 3.78 µM
  TGI: > 100 µM
DU-145 prostate
  GI50: 74.8 µM
  TGI: > 100 µM
MCF7 breast
  GI50: 39.5 µM
  TGI: > 100 µM
A549 NSCLC
  GI50: 17.7 µM
  TGI: > 100 µM
BT-549 breast
  GI50: 17.2 µM
  TGI: > 100 µM
SNB-19 CNS
  GI50: 18.4 µM
  TGI: > 100 µM
ACHN renal
  GI50: 1.7 µM
  TGI: > 100 µM
HT29 colon
  GI50: 29 µM
  TGI: > 100 µM
786-0 renal
  GI50: 8.71 µM
  TGI: > 100 µM
HCT-15 colon
  GI50: 4.83 µM
  TGI: > 100 µM
COLO 205 colon
  GI50: 10.5 µM
  TGI: 36.8 µM
LOX IMVI melanoma
  GI50: 0.965 µM
  TGI: > 100 µM
TK-10 renal
  GI50: 18.5 µM
  TGI: > 100 µM
HCT-116 colon
  GI50: 2.99 µM
  TGI: 62.1 µM
SW-620 colon
  GI50: 12 µM
  TGI: > 100 µM
MDA-MB-435
  GI50: 39.3 µM
  TGI: > 100 µM
T-47D breast
  TGI: > 100 µM
SF-539 CNS
  GI50: 83.2 µM
  TGI: > 100 µM
KM12 colon
  GI50: 45.6 µM
  TGI: > 100 µM
PC-3 prostate
  GI50: 1.48 µM
  TGI: > 100 µM
SF-295 CNS
  GI50: 1.58 µM
  TGI: > 100 µM
CAKI-1 renal
  GI50: 1.76 µM
  TGI: 4.96 µM
OVCAR-5 ovarian
  GI50: 20.8 µM
  TGI: > 100 µM
RXF 393 renal
  GI50: 3.65 µM
  TGI: 24.4 µM
NCI-H460 lung
  GI50: 4.9 µM
  TGI: > 100 µM
OVCAR-3 ovarian
  TGI: > 100 µM
UACC-62 melanoma
  GI50: 4.75 µM
  TGI: 61.9 µM
HOP-92 NSCLC
  GI50: 0.236 µM
  TGI: 5.59 µM
EKVX NSCLC
  GI50: 12.5 µM
  TGI: > 100 µM
SK-MEL-28 melanoma
  GI50: 84.9 µM
  TGI: > 100 µM
HS 578T breast
  GI50: 5.19 µM
  TGI: > 100 µM
SK-MEL-5 melanoma
  GI50: 3.78 µM
  TGI: 71.4 µM
SK-OV-3 ovarian
  TGI: > 100 µM
MDA-MB-231 breast
  GI50: 0.455 µM
  TGI: 12.5 µM
